# Results published in ChEMBL document CHEMBL1136430, “Chain-branched acyclic phenethylthiocarbamates as vanilloid receptor antagonists” (Bioorg Med Chem Lett, 2003).
# Assays:
# Vanilloid receptor [1] = molecular target: T1, Vanilloid receptor (Rattus norvegicus, UniProt Q9ERZ8+Q9WUD2+O35433); experiment: Ability to inhibit [Ca2+] influx neonatal rat cultured spinal sensory neurons.; assay type: functional
# Vanilloid receptor [2] = molecular target: T1, Vanilloid receptor; experiment: Ability to cause [Ca2+] influx in neonatal rat cultured spinal sensory neurons.; assay type: functional
Structure (SMILES),IC50 (Vanilloid receptor [1]),EC50 (Vanilloid receptor [2])
CCC(CCc1ccc(O)c(OC)c1)CC(=O)NCCc1ccccc1 (stereo not given),> 30 µM,> 100 µM
COc1cc(CC(C)O/C(S)=N/CCc2ccccc2)ccc1O (stereo not given),> 30 µM,> 100 µM
CCC(CCc1ccc(O)c(OC)c1)N(C)/C(S)=N/CCc1ccccc1 (stereo not given),27.2 µM,> 100 µM
CCC(CCc1ccc(O)c(OC)c1)NC(=O)NCCc1ccccc1 (stereo not given),> 30 µM,> 100 µM
CCC(CCc1ccc(O)c(OC)c1)N(CCc1ccccc1)/C(S)=N/CCc1ccccc1 (stereo not given),> 30 µM,> 100 µM
CCC(CCc1ccc(O)c(OC)c1)OC(=O)NCCc1ccccc1 (stereo not given),> 30 µM,> 100 µM
COc1cc(CCCC(C)O/C(S)=N/CCc2ccccc2)ccc1O (stereo not given),> 30 µM,> 100 µM
CCC(CCc1ccc(O)c(OC)c1)C/C(S)=N/CCc1ccccc1 (stereo not given),> 30 µM,> 100 µM
COc1cc(CCC(O/C(S)=N/CCc2ccccc2)c2ccccc2)ccc1O (stereo not given),> 30 µM,> 100 µM
CCC(CCc1ccc(O)c(OC)c1)N(Cc1ccccc1)/C(S)=N/CCc1ccccc1 (stereo not given),20.9 µM,> 100 µM
COc1cc(CCCO/C(S)=N/CCc2ccccc2)ccc1O,> 30 µM,> 100 µM
COc1cc(CCC(C)O/C(S)=N/CCc2ccccc2)ccc1O (stereo not given),9.9 µM,> 100 µM
CCC(CCc1ccc(O)c(OC)c1)/N=C(\S)NCCc1ccccc1 (stereo not given),28.5 µM,> 100 µM
Oc1cc2c(cc1O)CN(C(=S)NCCc1ccc(Cl)cc1)CCC2 [CAPSAZEPINE],0.6 µM,> 100 µM

# The remaining lines, values ahead:
IC50 (Vanilloid receptor [1]),EC50 (Vanilloid receptor [2]),Structure (SMILES)
6.3 µM,> 100 µM,CCC(CCc1ccc(O)c(OC)c1)O/C(S)=N/CCc1ccccc1 (stereo not given)
10.7 µM,> 100 µM,COc1cc(CCC(CCc2ccc(C(F)(F)F)cc2)O/C(S)=N/CCc2ccccc2)ccc1O (stereo not given)
27.9 µM,> 100 µM,CCCC(CCc1ccc(O)c(OC)c1)O/C(S)=N/CCc1ccccc1 (stereo not given)
19.2 µM,> 100 µM,COc1cc(CCC(CCc2ccccc2)O/C(S)=N/CCc2ccccc2)ccc1O (stereo not given)
25 µM,> 100 µM,COc1cc(CCC(Cc2ccccc2)O/C(S)=N/CCc2ccccc2)ccc1O (stereo not given)
> 30 µM,> 100 µM,COc1cc(CCC(CCCc2ccccc2)O/C(S)=N/CCc2ccccc2)ccc1O (stereo not given)
